For assay [1], the system named is AKT phosphorylation in bovine chondrocytes. Briefly: Stimulation of AKT phosphorylation in primary bovine chondrocytes (pAKT ELISA). It counts as cell-based. Conditions: 10 min stimulation, doses in M (Table 4), 6x-Histidine-tagged fusion proteins. The method, then:
(§1) Fusion proteins comprising IGF-1 and a cartilage matrix binding domain were prepared as described above. Six fusion proteins were prepared: GF-Fus1 (6x-Histidine-tagged), GF-Fus2(6x-Histidine-tagged), GF-Fus3 (6x-Histidine-tagged), GF-Fus4 (6x-Histidine-tagged), GF-Fus5 (6x-Histidine-tagged), and GF-Fus6 (6x-Histidine-tagged). In order to ensure that the growth factor portion of the fusion protein was active in the fusion proteins, each construct was tested for its ability to stimulate AKT phosphorylation. Wild-type IGF-1 (wtIGF) was included as a control. Bovine chondrocytes were stimulated with a range of doses of each fusion protein, and pAKT levels were measured by ELISA.
Bovine chondrocytes are isolated from the femoral chondyles of 2-4 week old bovine calves. Knee joints are mounted by removing all tissue surrounding the femur, removing the femoral head with a bone saw or hack saw, and clamping in a tissue vice. Joints are aseptically opened, removing the patella, tibia and fibula. Using a scalpel, cartilage is sliced off the femoral chondyles and placed in sterile PBS (pH=7.4) containing penicillin-streptomycin (1×, Gibco 15140-122). PBS is subsequently removed and pronase solution (50 mL per 5 g of tissue), consisting of high glucose DMEM (Life Technologies Cat#11965-092), fetal bovine serum (10% v/v, Life Technologies Cat#16140071), HEPES (100 mM, Gibco 15630-080), non-essential amino acids (1×, Sigma M7145), penicillin-streptomycin (1×, Gibco 15140-122), proline (400 μM, Sigma P5607-256), Protease Type XIV (2 mg/mL, Sigma Cat# P5147), is added for 1 hour with stirring. After rinsing twice with sterile PBS (pH=7.4), collagenase solution (50 mL per 5 g of tissue), consisting of high glucose DMEM (Life Technologies Cat#11965-092), fetal bovine serum (10% v/v, Life Technologies Cat#16140071), HEPES (100 mM, Gibco 15630-080), NEAA(1×, Sigma M7145), Penicillin-Streptomycin (1×, Gibco 15140-122), 0.25 mg/mL Collagenase P (Roche Cat#11 249 002 001), is added for 18 hours with stirring. Cell are strained, washed, and resuspended in chondrocyte culture medium (low glucose DMEM (1× Gibco 11885-084), Penicillin-Streptomycin (1×, Gibco 15140-122), non-essential amino acids (1×, Sigma M7145), and HEPES (100 mM, Gibco 15630-080)) with fetal bovine serum (10% v/v, Life Technologies Cat#16140071).
For ligand stimulation, chondrocytes were seeded at 200,000 cells/well into 96-well tissue culture plates with 100 μL of chondrocyte culture medium with fetal bovine serum (10% v/v, Life Technologies Cat#16140071). […]
(In general: ELISA stands for enzyme-linked immunosorbent assay.)

The subject of assay [2] is bovine cartilage explants. Briefly: In vitro joint disease model (IL-1), explanted bovine cartilage: sGAG loss. In kind it is cell-based. The note with it: 13.3 nM supplied in every medium change, IL-1, relative to Disease control. An excerpt: (§2) Bovine cartilage explants (3 mm diameter, 1.2 mm thick) are harvested from the femoral patellar groove of 2-4 week old bovine calves. Knee joints are mounted by removing all tissue surrounding the femur, removing the femoral head with a bone saw or hack saw, and clamping in a tissue vice. Joints are aseptically opened, removing the patella, tibia and fibula. Using a 3 mm diameter disposable biopsy punch, approximately 80×3 mm diameter full thickness cartilage cores are punched from the femoral-patellar groove. A sterile knife is used to slice the cores at the cartilage-bone interface. Cores are then inserted into 3 mm diameter holes in a 1.2 mm thick sterile stainless steel plate and sliced flush with the plate using sterile razor blades to remove the excess core length, resulting in 3 mm diameter, 1.2 mm thick cartilage explants with the superficial zone cartilage intact.
(§3) Explants are cultured in 96-well plates in 300 μL of medium consisting of low glucose DMEM (1× Gibco 11885-084), Penicillin-Streptomycin (1×, Gibco 15140-122), ascorbic acid (20 μg/mL, Sigma A4403), proline (400 μM, Sigma P5607-256), non-essential amino acids (1×, Sigma M7145), and HEPES (100 mM, Gibco 15630-080). Explants from three animals (n=2-3 per animal) are used in each treatment condition for a total explant number of 8-9 per condition. Medium is changed every 2 days. On days 6 and 10, the medium is supplemented with 5 μCi/mL of ^35S-sodium sulfate (Perkin Elmer NEX041H001MC, 1 mCi).
(§4) Timepoints are taken at day 8 and 12: explant tissue is washed four times for 30 min each (2 hr total) in 1 mM unlabeled sodium sulfate in PBS. Each explant is weighed wet and frozen at −20° C. until digestion. Tissue digestion was performed with Proteinase K (Roche cat #3115879001) and each explant is digested in 1 mL 100 μg/mL Proteinase K in 50 mM Tris-HCL, 1 mM Calcium Chloride pH=8.0 buffer at 60° C. overnight. Measurement of sGAG content and DNA content is performed using standard assay methods such as those described in Hoemann, 2004, Methods in Molecular Medicine: Cartilage and Osteoarthritis. Totowa, N.J.: Humana Press Inc.; p. 127-52. ^35S-sulfate content of the digested cartilage explants was quantified by mixing 20 μL of digest with 250 μL of scintillation fluid (Perkin Elmer cat #1200-439) and counting with a WALLAC 1450 MICROBETA TRILUX scintillation counter.
(§5) Treatments were given at the following concentrations: wtIGF-1 13.3 nM=100 ng/mL (IGF-1 R&D systems 291-G1); GF-Fus1 (6x-Histidine tagged) 13.3 nM=135 ng/mL; GF-Fus2 (6x-Histidine tagged) 13.3 nM=140 ng/mL; and GF-Fus3 (6x-Histidine tagged)13.3 nM=181 ng/mL. All treatments included IL-1 and were given for either 4 days or the entire culture duration. The outcomes measured were ^35S-sulfate incorporation, DNA content, and sGAG content of plug at endpoint, and sGAG released to media for all media changes. Controls were either no treatment (Healthy) or IL-1 alone at 1 ng/mL (Disease).
(§6) FIG. 4 depicts a graph of cartilage matrix loss as measured by the cumulative percentage of total sGAG lost to the culture medium against time (days). Percentage loss is calculated by dividing the cumulative sGAG in the culture medium by the total sGAG present in the medium over the culture period plus the sGAG remaining in the explant at the end of culture. Cartilage matrix loss was reduced by each IGF fusion protein relative to the disease control at a level similar to wild-type IGF. New cartilage matrix synthesis (i.e. sulfated proteoglycan synthesis is measured by ^35S-Sulfate incorporation) during the final 48 hrs of cultures terminated at day 8 and day 12 is shown in FIGS. 5A and 5B, respectively. Cartilage matrix synthesis was increased compared to disease control by all fusion proteins (GF-Fus1, GF-Fus2, and GF-Fus3) and wild-type IGF when the fusion proteins were supplied in every medium change for the entire culture duration of 8 and 12 days (black bars). […]

Assay [3] relates to bovine cartilage explants. Briefly: In vitro joint disease model (IL-1), explanted bovine cartilage: ^35S-sulfate incorporation. In kind it is cell-based. The note with it: supplied in every medium change for 8 or 12 days, IL-1, final 48 hrs, versus Disease control.
Source text: as §2, §3, §4, §5, §6

The nature of assay [4]: ELISA binding of fusion proteins to heparan sulfate coated plates. The note with it: 6x-Histidine-tagged proteins, FIG. 1A. The method, then: (§7) The specificity of binding of fusion proteins to the polysaccharides heparan sulfate and chondroitin sulfate may be determined by measuring the ability of the proteins to bind polysaccharides coated on an ELISA plate. Heparin Binding Plates (BD Biosciences) are coated with 50 μl of 2-10 μg/mL concentration of heparan sulfate or chondroitin sulfate (Sigma-Aldrich®) and incubated overnight at room temperature. Plates are washed with PBS and blocked with 250 μl of 0.2% gelatin in PBS for 1 hour at 37 C. Plates are then washed with PBS and tapped dry. 50 μl of protein in a dilution series is added to the wells and incubated for 2 hours at 37 C. The protein dilution series starts from 100 nM and includes ten additional three-fold dilutions in PBS, 0.2% gelatin and one blank (PBS, 0.2% gelatin only). After the plates are washed in PBS, 50 μl of anti-human IGF-1 (Abcam) at 1:250 in PBST is added and the plates are incubated for 1 hour rotating at room temperature. Plates are washed with PBST and 100 μl of 1:1000 anti-Rabbit-HRP (Cell Signaling Technology®) in PBST is added to each well and the plate is incubated for 1 hour at room temperature. […] The absorbance is measured at 450 nm and the resulting data is analyzed using GraphPad Prism® (GraphPad Software, San Diego, Calif.). […]

Assay [5] in a line: ELISA binding of fusion proteins to chondroitin sulfate coated plates. Conditions: 6x-Histidine-tagged proteins, FIG. 1B. As for the experimental part:
as §7

The subject of a further assay is BXPC-3 cells. Briefly: Stimulation of AKT phosphorylation in BXPC-3 cells (pAKT ELISA). The note with it: 10 min stimulation, doses in M (Table 4), 6x-Histidine-tagged fusion proteins. It counts as cell-based. The method, then:
as §1
For ligand stimulation, chondrocytes were seeded at 200,000 cells/well into 96-well tissue culture plates with 100 μL of chondrocyte culture medium with fetal bovine serum (10% v/v, Life Technologies Cat#16140071). Alternatively, BXPC-3 cells, a pancreatic adenocarcinoma cell line (ATCC® CRL-1687™), were seeded at 30,000 cells/well into 96-well tissue culture plates with 100 μL of BXPC-3 medium (RPMI-1640, e.g., ATCC® 30-2001™), with L-glutamine (2 mM), Penicillin-Streptomycin (1×, Gibco® 15140-122), Fetal Bovine Serum (10% v/v, Life Technologies Cat#16140071)). After 24 hrs, both chondrocytes and BXPC-3 cells were rinsed with 100 μL of sterile PBS (pH=7.4) per well and 100 μl of chondrocyte or BXPC-3 culture medium (without fetal bovine serum) was added to the corresponding cell type. After an additional 24 hrs, cells were stimulated with the doses of fusion proteins set forth in Table 4 by adding 25 μL of fusion protein at a concentration 5 times greater than the concentration listed in Table 4 to the 100 μL of medium already in the wells. After 10 min of stimulation, fusion protein was removed and wells were rinsed in ice cold PBS (pH=7.4). 50 μL/well of cell extraction buffer (Invitrogen cat# FNN0011) was added and incubated with shaking at 4° C. for 30 minutes. Lysates were then frozen at −80° C.
Corning high binding 384 well black ELISA plates (cat#3577) are coated with 30 μL of capture antibody at 4 μg/mL (anti-AKT1 total capture antibody, Upstate, Cat#05-591MG) in PBS (pH=7.4) for 16 hours at room temperature, washed and blocked with […] 2% bovine serum albumin (Sigma Cat# A3294) in PBS (pH=7.4) for 1 hour at room temperature. 20 μL of thawed lysates or recombinant pAKT standards (ten 2-fold serial dilutions of 400 ng recombinant human AKT, active (Upstate, Cat#14-276) in PBS (pH=7.4) containing 50% v/v Cell extraction buffer (Invitrogen Cat#FNN0011), 1% bovine serum albumin (Sigma Cat# A3294), 0.05% Tween20) are applied to the coated plate and incubated for 2 hours at room temperature. After washing 3 times with 100 μL/well of 0.05% Tween-20/PBS (pH=7.4) bound phospho-AKT is detected using Phospho-AKT (Ser473)(587F11)-biotinylated (Cell Signaling, Cat#5102), streptavidin-HRP (R&D Systems Cat# DY998, Part #890803), SuperSignal ELISA PicoChemiluminescent Substrate (Thermo Scientific Cat#37069), using a luminometer to detect light emissions at 425 nm.

For “GF-Fus2: N-terminal Prelp HB domain fused to wild-type IGF”, in assay [1], the “logEC50 Mean” value was −8.830. The “cartilage matrix loss (% sGAG loss)” value in assay [2] is “reduced”. Besides, the “cartilage matrix synthesis (^35S-sulfate incorporation)” value in assay [3] is on record as “increased”.

With “GF-Fus4: IGF-1(LR3) fused to Collagen IX HB domain”, the “binding to heparan sulfate” value in assay [4] was “did not bind”. In addition, the “binding to chondroitin sulfate” value in assay [5] is “did not bind”. Further, in the assay on BXPC-3 cells, the “logEC50 Mean” value was −9.133.

Source of the values: patent US20170327556A1, “CARTILAGE-BINDING FUSION PROTEINS” (Merrimack Pharmaceuticals, Inc., priority 2013, published 2017).
